From patent US20250387404A1, “FORMULATIONS AND METHODS FOR TREATING EPIDERMOLYSIS BULLOSA SIMPLEX AND RELATED CONDITIONS” (RUTGERS, THE STATE UNIVERSITY OF NEW JERSEY, priority 2022, published 2025)
“Also recorded” adds a separate entry of the source. Where two headings read alike, the source gives them in different places.

Assays:
K14.R125C keratinocytes [1] = assay: Keratin aggregates by K5 immunofluorescence microscopy; type: cell-based, human; details: 0.8 μM PKC412, 24 h; DMSO-treated cells mean=56%
Experimental: Skin samples were obtained for diagnostic purposes. After written informed consent, primary keratinocytes were isolated from the remaining tissue. […] Keratinocytes were grown in low calcium Gibco™ Keratinocyte-SFM Medium supplemented with L-glutamine, EGF and BPE (LCM, Thermo Fisher Scientific) and cultured at 37° C., 5% CO2 and 90% humidity. To induce cell-cell contacts, LCM was changed to high calcium medium (HCM, 1.2 mM CaCl2) and cells were incubated for 24 h.

K14.R125C keratinocytes [2] = assay: Epithelial sheet assay (dispase assay); type: cell-based, human; details: 1 μM, high calcium medium, 24 h, vs vehicle-treated monolayers
Experimental: (§1) Prior to the assay, cells were washed twice with 1.2 mM Ca^2+ PBS and incubated for 30 min at 37° C. with Dispase II (Roche Diagnostics, 9 mg/ml in 1:2 HEPES buffer:keratinocytes medium, 2 mM Ca^2+). Free-floating cell sheets were transferred to a 15 ml Falcon tube containing 5 ml 1.2 mM Ca^2+ PBS and subjected to 25 rpm overhead rotation (WiseMix overhead rotator, Witeg Labortechnik, Germany) for 1 min at room temperature. Image acquisition was done using Nikon SMZ 1500 binocular and image processing by ImageJ.

K14.R125G keratinocytes = assay: Epithelial sheet assay (dispase assay); type: cell-based, human; details: 1 μM, high calcium medium, 24 h
Experimental: as §1

[3] = tested on: normal human keratinocytes (NHK); assay: Electrochemical impedance spectroscopy on multielectrode arrays; type: cell-based; details: 24 h treatment; read-out: EC50 (impedance concentration response curve)
Source text: Skin samples were obtained for diagnostic purposes. After written informed consent, primary keratinocytes were isolated from the remaining tissue. Immortalized human control (NHK, normal human keratinocytes) and EBS keratinocytes (K14.R125C, K14.R125G, K14.N123S, K14.Y415H, K5.G138E/L175F and K5.E477D) were generated (Has et al. (2018) The Position of Targeted Next-generation Sequencing in Epidermolysis Bullosa Diagnosis. Acta Dermato-Venereologica 98:437-40; He Y, Maier K, Leppert J, Hausser I, Schwieger-Briel A, Weibel L, et al. (2016) Monoallelic Mutations in the Translation Initiation Codon of KLHL24 Cause Skin Fragility. Am J Hum Genet 99:1395-404). Keratinocytes were grown in low calcium Gibco™ Keratinocyte-SFM Medium supplemented with L-glutamine, EGF and BPE (LCM, Thermo Fisher Scientific) and cultured at 37° C., 5% CO2 and 90% humidity. […]
Impedimetric measurements on NHK and K14.R125C keratinocytes were performed as previously described. […] Impedance spectra (500 Hz-5 MHz) were automatically recorded every 30 min using the impedance measurement platform based on an Agilent 4294A high-precision impedance analyzer (Agilent Technologies) and the self-developed controlling software IMAT advanced. […] The cell signal (relative impedance) was determined with the self-developed analysis software IDAT v3.7.2.

[4] = tested on: RXXpS/pT AGC-kinase motif, P-K17 S44, P-DSP S165/S166, P-DSP S2849; assay: Immunoblot with phospho-epitope specific antibodies; type: cell-based, human
Source text: Skin samples were obtained for diagnostic purposes. After written informed consent, primary keratinocytes were isolated from the remaining tissue. Immortalized human control (NHK, normal human keratinocytes) and EBS keratinocytes (K14.R125C, K14.R125G, K14.N123S, K14.Y415H, K5.G138E/L175F and K5.E477D) were generated (Has et al. (2018) The Position of Targeted Next-generation Sequencing in Epidermolysis Bullosa Diagnosis. Acta Dermato-Venereologica 98:437-40; He Y, Maier K, Leppert J, Hausser I, Schwieger-Briel A, Weibel L, et al. (2016) Monoallelic Mutations in the Translation Initiation Codon of KLHL24 Cause Skin Fragility. Am J Hum Genet 99:1395-404). Keratinocytes were grown in low calcium Gibco™ Keratinocyte-SFM Medium supplemented with L-glutamine, EGF and BPE (LCM, Thermo Fisher Scientific) and cultured at 37° C., 5% CO2 and 90% humidity. To induce cell-cell contacts, LCM was changed to high calcium medium (HCM, 1.2 mM CaCl2) and cells were incubated for 24 h.
To separate proteins under denaturing conditions, sodium dodecyl sulfate polyacrylamide gel electrophoresis (SDS-PAGE) was performed. Proteins were transferred to nitrocellulose membranes (VWR) using a semi-dry blotter (Armin Baack Labortechnik). Membranes were blocked using 3% (w/v) skim milk/TBS with Tween (TBST) or 3% (w/v) bovine serum albumin (BSA)/TBST and subsequently probed with the appropriate antibodies. Chemiluminescence was detected using ChemoCam Imager (Intas). Band intensity was quantified using ImageJ software.

desmoplakin (DSP) = assay: Desmoplakin localization by immunofluorescence microscopy; type: cell-based, human; details: 1.2 mM CaCl2, vs vehicle-treated cells
Experimental: Human keratinocytes grown on coverslips were fixed for 5 min in methanol (−20° C.) and 30 sec in acetone (−20° C.). Primary antibodies were diluted in 1% (w/v) BSA in TBS and incubated overnight at 4° C. in a humid chamber. The next day, coverslips were washed in TBS and incubated with the fluorophore-conjugated secondary antibody for 30 min at RT in the dark. DNA was stained with DAPI. Finally, coverslips were washed three times in TBS, rinsed briefly in aqua bidest and mounted with ProLong® Gold antifade reagent (Invitrogen). Images or Z-stacks were acquired with a confocal LSM 780 (Carl Zeiss) equipped with 40×/1.3 NA or 63×/1.4 NA oil immersion objectives and an AxioCam Mrm (Carl Zeiss). Image analysis and maximum intensity projections of Z-stacks was performed using Zen 2012 Blue software (Carl Zeiss). ImageJ was used for image processing.

K18 R90C mice [5] = assay: Fas-induced liver injury; type: in vivo, mouse; details: for increase in serum alanine aminotransferase (ALT) level after Fas treatment: single 1× pretreatment (PKC412 25 mg/kg, PP2 1 mg/kg, Vem 1 mg/kg), Fas antibody 0.25 μg/g; for hepatocyte keratin filament organization: PP2 1 mg/kg ip daily 4d
Experimental: (§3) All mouse experiments were performed using a protocol approved by Rutgers University Institutional Animal Care and Use Committee. Previously described 4-6 weeks-old F22 male and female mice that express the human K18 R90C mutant (FVB/N background) were used. […] For immunofluorescence experiments, mouse livers were collected after CO2 euthanasia and embedded in optimum-cutting-temperature compound then stored (−80° C.). For Fas experiments, mice were treated by intraperitoneal administration of Fas antibody (0.15 μg/g body weight; BD Pharmingen). After 5 h, mice were sacrificed followed by collection of blood and liver. Livers were fixed with 10% formalin and analyzed by hematoxylin-eosin (H&E) staining or TUNEL assay. A hemorrhage score was calculated using QuPath (Quantitative Pathology & Bioimage Analysis) and ImageJ software. Apoptosis was estimated using TUNEL assay detection kit (ApopTag Peroxidase In Situ Apoptosis; Sigma Aldrich). Fluorescence images were acquired with the same exposure time and used to count the apoptotic nuclei. Serum alanine aminotransferase (ALT) levels were determined using the Liquid ALT Reagent Set (Pointe Scientific). For the acetaminophen (APAP) experiments, the liver histopathology score was determined using a 0-4 scoring system. Scoring was conducted by two scorers blinded to treatment conditions, and the average score was used.

K18 and K8 [6] = details: based on prior studies; cited from earlier work
[7] = healthy volunteers, single oral dose (50 mg) as microemulsion; cited from earlier work
[8] = tested on: GFP-K18 R90C lentivirus-transduced A549 cells; assay: Keratin dots-to-filaments assay (high-throughput screen and validation); type: cell-based, human; details: 5 μM, 48 h
Experimental: The screening strategy was performed as described. In brief, human A549 lung adenocarcinoma cells (American Type Culture Collection) were seeded into six-well plates overnight and then transduced with K8 WT and either the GFP-tagged K18 WT or GFP-tagged K18 R90C lentivirus for 2d. A549 cells were selected for the screening assay because of their high transduction efficiency and readily visualized keratin filaments. The transduced cells were seeded into 384-well plates for 1d followed by addition of compounds from the Navigator Pathways (Center for Chemical Genomics, University of Michigan). After 48 h, cells were fixed counterstained with 4′,6-diamidino-2-phenylindole (DAPI; Invitrogen). Images were taken with the Image Xpress Micro XLS High Content Imaging System then analyzed using MetaXpress software (Molecular Devices). Compounds that decrease the number of keratin dots/cell and promote keratin filament formation were selected for secondary validation. 945 compounds from the Navigator Pathways library were screened. The library consists of several daughter sets that cover a range of pathways including Autophagy, Wnt, Epigenetics, Protein Kinases, Proteases, Redox, Cannabinoids, and Natural Products.

[9] = tested on: GFP-K18 R90C transduced A549 cells; assay: IFN-γ/FasL-induced apoptosis in cultured cells; type: cell-based, human
Experimental: (§2) A549 cells were cultured using Ham's F-12K medium (Thermo Fisher Scientific) supplemented with 10% fetal bovine serum (Sigma Aldrich) and 1% penicillin and 10,000 U/mL streptomycin (Life Technologies).

K18 and K8 [10] = assay: K8/K18 phosphorylation by mass spectrometry and immunoblot; type: cell-based, human
Experimental: Cell and liver samples were solubilized using a Dounce homogenizer in 2% SDS-containing PBS supplemented with protease inhibitor (Thermo Fisher Scientific), then sonicated 80× (is pulse, intensity 70) (Fisher Scientific; Model: FB50). Lysates were pelleted (16,000 g×10 min/20° C.) and the supernatant was used for subsequent analysis. Equal amounts of protein were separated by SDS-polyacrylamide gel electrophoresis (PAGE) then transferred to polyvinylidene fluoride membranes (Bio-Rad) followed by immunoblotting. For immunoprecipitation, K18 R90C-transduced A549 cells were homogenized in PBS containing 1% Nonidet P-40 (NP40), protease inhibitors, and okadaic acid (Cayman Chemical; 1 μg/mL). […] For mass spectrometry, conjugated beads were suspended in PBS-buffered 8M urea to yield ˜6 g (in 60 μl urea-containing buffer). Samples were separated SDS-PAGE, followed by in-gel tryptic digestion then LC-MS/MS analysis. Peptides were identified by the Mass Spectrometry Facility at Rutgers University.

[11] = PP2 content in liver and serum by UPLC-UV; type: in vivo, mouse
Experimental: Mice were sacrificed and livers were harvested at the indicated times. […] The column was washed once with 1 mL 100% methanol and eluted with 1 mL 5% NH4OH in methanol. […] The evaporated sample was resuspended in […] injection solvent [80% (5% ammonium hydroxide in methanol)+20% (10 mM ammonium formate+0.1% formic acid)], and […] was injected for ultra-performance liquid chromatography (UPLC). […] The supernatant was transferred to new tubes then processed further for SPE and UPLC exactly as carried out for the liver tissue extracts.
A Waters ACQUITY UPLC system equipped with Empower software and H-Class PLUS (CH-A) Core was used. […] The column was eluted at flow rate of 0.5 ml/min with linear gradients of solvents A and B (A, 10 mM ammonium formate, 0.1% formic acid in water; B, 0.1% formic acid in methanol).

A549 cells = details: PP2 10 μM, A549 cells expressing K18 R90C
Experimental: as §2

K18 R90C mice [12] = tested on: K18 R90C mice
Experimental: as §3

[13] = K18 R90C mice, PP2 1 mg/kg intraperitoneally daily for 4d, female and male
Experimental: as §3

[14] = PKC412 25 mg/kg ip daily 4d, male and female, Fas challenge
[15] = K18 R90C-expressing A549 cells, mass spectrometry, PP2 vs DMSO
[16] = female mice, PP2 1 mg/kg ip 4d, Fas antibody 0.15 μg/g 5 h
[17] = male mice, PP2 1 mg/kg ip 4d, Fas antibody 0.15 μg/g 5 h

4′-N-benzoylstaurosporine [PKC412]
keratin aggregate-containing cells (mean) (K14.R125C keratinocytes [1]): 13%
epithelial monolayer integrity after rotation (K14.R125C keratinocytes [2]): remained fully intact
fragility of mutant epithelial sheets (K14.R125G keratinocytes): rescued fragility
EC50 [3]: 84 nM
phosphorylation at AGC-kinase motif RXXpS/pT ([4]; EBS K14.R125C cells vs vehicle-treated): significant reduction in phosphorylation
K17 phosphorylation at P-S44 ([4]; NHK and K14.R125C cells vs vehicle): significantly reduced
DSP phosphorylation at S165 and S166 ([4]; vs DMSO-treated cells): significantly reduced
DSP phosphorylation at S2849 ([4]; vs DMSO-treated cells): significantly reduced
DSP at sites of cell-cell contacts (desmoplakin (DSP)): significant increase
protection from Fas-induced liver injury, male versus female (K18 R90C mice [5]; PKC412 25 mg/kg ip daily 4d, Fas antibody 0.15 μg/g 5 h): equally protects both sexes
ALT levels (K18 R90C mice [5]; [14]): significantly reduced
extent of hemorrhage (K18 R90C mice [5]; [14]): significantly reduced
increase in serum alanine aminotransferase (ALT) level after Fas treatment (K18 R90C mice [5]; male mice): significantly reduced
K18 S34 and K8 S432 phosphorylation (K18 and K8 [6]): no effect
tolerability, single oral dose [7]: well tolerated

CC(C)(C)n1nc(-c2ccc(Cl)cc2)c2c(N)ncnc21 [PP2, 1-tert-butyl-3-(4-chlorophenyl)-1H-pyrazolo[3,4-d]pyrimidin-4-amine]
percentage of cells with keratin mutant aggregates [8]: significantly decreased
induction of apoptosis under basal non-Fas condition (TUNEL) ([9]; 5 μM, no Fas challenge): does not induce apoptosis
cleaved caspases 3 and 7 ([9]; PP2 5 μM 48 h then IFN-γ and FasL): decreased presence
TUNEL-positive cells ([9]; PP2 5 μM 48 h then IFN-γ and FasL, without PP2 37%): 8%
okadaic acid-induced hyperphosphorylation of K18/K8 (K18 and K8 [10]; A549 cells, PP2 5 μM 48 h, okadaic acid 1 μg/mL): reversed
decrease of global phosphorylation of K8 (K18 and K8 [10]; [15]): 38%
decrease of global phosphorylation of K18 (K18 and K8 [10]; [15]): 43%
K18 S34 and K8 S432 phosphorylation (K18 and K8 [10]; immunoblot, PP2 5 μM 48 h): significant decrease
liver TUNEL-positive cells (K18 R90C mice [5]; PP2 1 mg/kg ip 4d, Fas challenge): fewer TUNEL-positive cells
SRC phosphorylation at stimulatory phospho-site Y416 in liver (K18 R90C mice [5]; female livers): not female
hepatocyte keratin filament organization (K18 R90C mice [5]; female livers): not female
ALT levels (K18 R90C mice [5]; [16]): not female
parenchymal liver hemorrhage (K18 R90C mice [5]; [16]): not female
SRC phosphorylation at stimulatory phospho-site Y416 in liver (K18 R90C mice [5]; male livers): decreased
hepatocyte keratin filament organization (K18 R90C mice [5]; male livers): normalized keratin filaments
ALT levels (K18 R90C mice [5]; [17]): improved
parenchymal liver hemorrhage (K18 R90C mice [5]; [17]): improved
increase in serum alanine aminotransferase (ALT) level after Fas treatment (K18 R90C mice [5]; male mice): significantly reduced
PP2 in serum ([11]; 1 mg/kg, 1 h after administration): no detectable PP2
PP2 in liver ([11]; after 4 h, male or female mice): no detectable PP2
PP2 levels in male mouse liver compared to female mouse liver ([11]; as a function of time): significantly higher
PP2 in liver ([11]; male and female FVB/N mice, 1 mg/kg, 1 h after administration): detected
tolerability in cells (A549 cells): not well tolerated
tested necrosis markers (K18 R90C mice [12]; PP2 vs vehicle): no significant difference
histologic protection (K18 R90C mice [12]; male compared with female PP2-treated mice): significant histologic protection
body or liver weight [13]: does not have an effect; also recorded: no significant effect
